Test results published in paper PMC9636434, “Discovery of small molecule agonists of the Relaxin Family Peptide Receptor 2” (Communications Biology, 2022).
Values joined by “and” are separate entries in the source; they are usually repeats but may differ in a detail not shown here. Equal entries are not always repeated. Where two headings read alike, the source gives them in different places.

Legend:
RXFP2 = RXFP2 (Homo sapiens, UniProt Q8WXD0); assay: HTRF cAMP assay in HEK-RXFP2 cells (stably transfected; also primary HTS); type: cell-based; design: FLAG (N); expressed in transfected cells; settings: for % Eff (cAMP response): experiments (1)-(3), 100 nM INSL3 = 100%, DMSO = 0%; for EC50: HEK-RXFP2
Description: A quantitative high-throughput screening (HTS) of more than 80 K compounds of the NCATS/NIH diversity collection was performed at four concentrations in HEK293T cells stably expressing human RXFP2 to identify candidate agonists. A homogenous time resolved fluorescence (HTRF) assay was used to directly detect compound-induced cAMP accumulation, with forskolin or human recombinant INSL3 serving as positive controls. […] A confirmatory CRE-luciferase cAMP screen was used to eliminate any potential false positives due to assay detection artifacts (Supplementary Fig. 1a).
The cAMP response induced by the compounds was normalized to the cAMP response induced by 100 nM INSL3 as 100% efficacy and the cAMP response induced by DMSO vehicle as 0% efficacy. Emax and EC50 were calculated using four parameter nonlinear fit dose-response stimulation curves. […] Molecular weight (MW).
The HTRF Gs dynamic cAMP assay kit (CisBio, Bedford, MA) was used to measure intracellular cAMP accumulation in HEK293T cells (ATCC, Manassas, VA)[56]. […] The cell stock was verified mycoplasma free and authenticated by ATCC. Transient transfection was accomplished by treating cells in a 6-well plate with a mixture of 2 μg plasmid and 6 μL Lipofectamine 2000 (Invitrogen, Waltham, MA) per manufacturer’s protocol and incubating overnight. For cAMP measurement in 96-well format, HEK293T cells stably transfected with human RXFP2 (HEK-RXFP2), human RXFP1 (HEK-RXFP1), mouse Rxfp1 (HEK-Rxfp1) or transiently transfected with human RXFP1-RXFP2 chimeric receptors were seeded between 7500 and 30,000 cells per well, depending on cell line responsiveness, in serum-free DMEM medium and incubated overnight at 37 °C, 5% CO2. After 18 h, cells were treated with a titration of compound, 2 μM forskolin, or DMSO vehicle. Control wells were also treated with a titration of INSL3 (Phoenix Pharmaceuticals, Burlingame, CA) or human recombinant relaxin 2 (Peprotech, Cranbury, NJ). For the RXFP2 antagonist experiment, cells were co-treated with 0.28 μM compound or 30 nM INSL3 and a titration of the INSL3 B dimer antagonist[38],[39]. For the INSL3 allosteric modulation experiment, cells were co-treated with 0.025, 0.0025, or 0.00025 μM of compound and a titration of INSL3. Cells were incubated for 1 h at 37 °C, 5% CO2, and then kit cAMP-d2 and anti-cAMP antibody were added per manufacturer protocol. Plates were incubated for 1 h at room temperature and the signal was read on a CLARIOstar plate reader (BMG Labtech, Ortenberg, Germany) at 665 and 620 nm emission wavelengths.

human PTHR1 = target: T1, human PTHR1 (Homo sapiens, UniProt Q03431); assay: HitHunter cAMP XS+ assay, cAMP Hunter cell line PTHR1; type: cell-based; settings: for RLU: replicates (1),(2)
T1 sequence (Q03431 27-593): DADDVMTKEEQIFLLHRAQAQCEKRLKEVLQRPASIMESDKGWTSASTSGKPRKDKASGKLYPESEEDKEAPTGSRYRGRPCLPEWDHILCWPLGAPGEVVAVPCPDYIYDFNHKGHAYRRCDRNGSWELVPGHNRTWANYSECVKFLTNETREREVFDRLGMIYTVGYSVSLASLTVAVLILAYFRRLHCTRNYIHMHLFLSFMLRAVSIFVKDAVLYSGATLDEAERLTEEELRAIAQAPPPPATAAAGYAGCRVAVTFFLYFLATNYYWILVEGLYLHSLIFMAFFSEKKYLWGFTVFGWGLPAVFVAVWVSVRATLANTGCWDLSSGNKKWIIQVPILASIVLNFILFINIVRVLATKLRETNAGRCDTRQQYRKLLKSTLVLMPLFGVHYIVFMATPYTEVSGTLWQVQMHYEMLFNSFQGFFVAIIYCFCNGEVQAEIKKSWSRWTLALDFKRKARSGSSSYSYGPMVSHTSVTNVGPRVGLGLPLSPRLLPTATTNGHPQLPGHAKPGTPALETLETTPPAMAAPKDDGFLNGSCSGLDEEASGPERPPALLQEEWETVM
Description: Results are reported as raw RLU values and represent the
mean ± SEM of 2 technical replicates.

HCO cells = assay: CellTiter-Glo cytotoxicity assay in HCO cells; type: cell-based, human; settings: experiments (1)-(3)
Description: Fig. 4 RXFP2 agonists induce mineralization of primary human osteoblasts and are non-cytotoxic. a Mineral hydroxyapatite fluorescent quantification after 14-day treatment in HCO cells. Results were normalized to control DMSO as 100% mineralization. b HCO and c HAVSMC toxicity after 24-h treatment with RXFP2 agonists, normalized to DMSO treatment as 0% toxicity. Results are expressed as mean ± SEM of 3 independent experiments. *p < 0.05, *** p < 0.001 vs. DMSO using One-way ANOVA.
Cell viability studies were undertaken to identify potential cytotoxic effects of the RXFP2 agonists. HCO cells and human aortic vascular smooth muscle cells (HAVSMC) were treated for 24 h. […] At 8.3 µM and below, no toxicity was found in HCO cells and toxicity was below 20% in HAVSMC cells for all three compounds (Fig. 4b, c).
The ATP CellTiter-Glo Luminescent Cell Viability Assay (Promega, Madison, WI) was used to measure cytotoxicity induced by the compounds in HCO cells and human aortic vascular smooth muscle cells (HAVSMC) (ATCC, Manassas, VA). HCO and HAVSMC cells were seeded in 96-well plates at 3000 and 7000 cells per well respectively. Cells were incubated overnight, treated with compound or DMSO vehicle and incubated for 24 h at 37 °C, 5% CO2. […] Plates were shaken for 2 min, incubated at room temperature for 10 min and the luminescent signal was read on a CLARIOstar plate reader.

Sequence of RXFP2 (Q8WXD0 whole entry): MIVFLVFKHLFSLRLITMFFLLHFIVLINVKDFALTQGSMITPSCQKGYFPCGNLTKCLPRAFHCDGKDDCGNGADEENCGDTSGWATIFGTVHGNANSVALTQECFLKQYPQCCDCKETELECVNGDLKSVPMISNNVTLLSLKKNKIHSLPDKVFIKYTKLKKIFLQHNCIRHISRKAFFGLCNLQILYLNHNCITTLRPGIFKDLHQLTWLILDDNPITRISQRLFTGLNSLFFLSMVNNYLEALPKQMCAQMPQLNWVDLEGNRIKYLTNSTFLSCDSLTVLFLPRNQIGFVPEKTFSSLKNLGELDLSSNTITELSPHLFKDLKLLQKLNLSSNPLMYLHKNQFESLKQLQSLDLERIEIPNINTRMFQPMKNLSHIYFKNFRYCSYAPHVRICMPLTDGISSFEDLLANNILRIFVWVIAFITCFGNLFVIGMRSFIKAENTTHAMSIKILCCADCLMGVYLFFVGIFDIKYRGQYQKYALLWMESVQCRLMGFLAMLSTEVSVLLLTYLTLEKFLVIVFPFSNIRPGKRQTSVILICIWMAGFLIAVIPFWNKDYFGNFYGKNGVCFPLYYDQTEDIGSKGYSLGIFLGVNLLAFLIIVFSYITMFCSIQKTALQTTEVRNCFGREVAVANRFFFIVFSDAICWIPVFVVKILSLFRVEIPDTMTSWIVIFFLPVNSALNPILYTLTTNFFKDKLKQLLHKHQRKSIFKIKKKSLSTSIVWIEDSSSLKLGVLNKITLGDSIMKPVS

How did the “% Eff (cAMP response)” value (RXFP2; Log [M] -4.60) turn out when `O=C1Nc2ccc(-c3cc(C(F)(F)F)cc(C(F)(F)F)c3)cc2C(=O)N2CCN(C(=O)COc3ccc(OC(F)(F)F)cc3I)C[C@@H]12` [compound 6641] was run?
The value was 104.78% and 100.31% and 87.28%.

What about the “% Eff (cAMP response)” value (RXFP2; Log [M] -5.60) of the same molecule?
The value was 76.57% and 72.45% and 73.51%.

What about the “% Eff (cAMP response)” value (RXFP2; Log [M] -6.60) of the same molecule?
Its value is 55.58% and 48.02% and 47.8%.

What about the “% Eff (cAMP response)” value (RXFP2; Log [M] -7.60) of the same molecule?
The value was 15.09% and 15.05% and 13.98%.

What about the “% Eff (cAMP response)” value (RXFP2; Log [M] -8.60) of the same molecule?
Its value is 1.51% and 0.43% and 1.99%.

What about the “% Eff (cAMP response)” value (RXFP2; Log [M] -9.60) of the same molecule?
Its value is -0.34% and 0.01% and 0.17%.

What about the “Emax (1)-(3)” value (RXFP2; individual experiments, % vs. 100 nM INSL3) of the same molecule?
Its value is 115% and 116.5% and 89.48%.

And the EC50 (RXFP2; individual experiments, read-out: EC50 (1)-(3))?
Its EC50 is 358 nM and 568 nM and 217 nM.

And the “Emax (% vs. 100 nM INSL3) (AVERAGE)” value (RXFP2; mean (± SEM) of 3 independent experiments)?
The value was 107% and 106.99 ± 8.77% and 106.99%.

What about the EC50 (RXFP2; mean (± SEM) of 3 independent experiments, read-out: EC50 (AVERAGE)) of the same molecule?
Its EC50 is 380 nM and < 1000 nM.

And the “cAMP response through PTHR1” value (human PTHR1; Hit Hunter cAMP assay)?
Its value is “does not activate”.

And the RLU (human PTHR1; Log [M] -4.70)?
Its RLU is 1080 RLU.

And the RLU (human PTHR1; Log [M] -5.18)?
The RLU was 1000 RLU.

What about the RLU (human PTHR1; Log [M] -5.65) of the same molecule?
Its RLU is 960 RLU.

And the RLU (human PTHR1; Log [M] -6.13)?
The RLU was 1040 RLU.

What about the RLU (human PTHR1; Log [M] -6.61) of the same molecule?
The RLU was 920 RLU and 960 RLU.

What about the RLU (human PTHR1; Log [M] -7.08) of the same molecule?
Its RLU is 1200 RLU and 1040 RLU.

And the RLU (human PTHR1; Log [M] -7.56)?
The RLU was 1000 RLU and 880 RLU.

And the RLU (human PTHR1; Log [M] -8.04)?
The RLU was 1000 RLU and 920 RLU.

And the RLU (human PTHR1; Log [M] -8.52)?
The RLU was 920 RLU and 1000 RLU.

What about the RLU (human PTHR1; Log [M] -8.99) of the same molecule?
Its RLU is 800 RLU.

And the “% Tox” value (HCO cells; Log [M] -6.03, 24 h)?
Its value is -11.63% and -7.45% and -4.96%.

What about the “% Tox” value (HCO cells; Log [M] -6.51, 24 h) of the same molecule?
The value was -9.76% and -5.09% and -6.71%.
